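96-well plates; 48 h exposure; 5 concentrations. Endpoints by linear interpolation between flanking doses. Not reached: highest tested concentration assigned. Definition used: TGI = concentration required for complete inhibition of growth.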
How the values were obtained:
Assay in all cases: growth of human tumour cells (NCI), 48 h
[1] = tested on: PC-3 prostate
[2] = tested on: TK-10 renal
[3] = tested on: BT-549 breast
[4] = tested on: HCT-15 colon
[5] = tested on: SNB-75 CNS
[6] = tested on: IGROV1 ovarian
[7] = tested on: MOLT-4 leukemia
[8] = tested on: RPMI-8226 leukemia
[9] = tested on: SR leukemia
[10] = tested on: SK-MEL-5 melanoma
[11] = tested on: KM12 colon
[12] = tested on: MALME-3M melanoma
[13] = tested on: RXF 393 renal
[14] = tested on: HS 578T breast
[15] = tested on: SW-620 colon
[16] = tested on: SK-MEL-28 melanoma
[17] = tested on: HL-60(TB) leukemia
[18] = tested on: SF-295 CNS
[19] = tested on: NCI-H460 lung
[20] = tested on: EKVX NSCLC
[21] = tested on: MCF7 breast
[22] = tested on: LOX IMVI melanoma
[23] = tested on: NCI-H522 lung
[24] = tested on: UO-31 renal
[25] = tested on: OVCAR-3 ovarian
[26] = tested on: U251 CNS
[27] = tested on: HT29 colon
[28] = tested on: COLO 205 colon
[29] = tested on: MDA-MB-435
[30] = tested on: SNB-19 CNS
[31] = tested on: M14 melanoma
[32] = tested on: NCI-H23 lung
[33] = tested on: HCC-2998 colon
[34] = tested on: DU-145 prostate
[35] = tested on: NCI-H226 lung
[36] = tested on: NCI/ADR-RES ovarian
[37] = tested on: HOP-62 NSCLC
[38] = tested on: ACHN renal
[39] = tested on: T-47D breast
[40] = tested on: OVCAR-8 ovarian
[41] = tested on: UACC-257 melanoma
[42] = tested on: CAKI-1 renal
[43] = tested on: CCRF-CEM leukemia
[44] = tested on: HCT-116 colon
[45] = tested on: SF-268 CNS
[46] = tested on: 786-0 renal
[47] = tested on: MDA-N
[48] = tested on: SF-539 CNS
[49] = tested on: MDA-MB-231 breast
[50] = tested on: K-562 leukemia
[51] = tested on: A549 NSCLC
[52] = tested on: SN12C renal
[53] = tested on: HOP-92 NSCLC
[54] = tested on: OVCAR-4 ovarian
[55] = tested on: OVCAR-5 ovarian
[56] = tested on: UACC-62 melanoma
[57] = tested on: SK-OV-3 ovarian
[58] = tested on: SK-MEL-2 melanoma
[59] = tested on: A498 renal

CC(CC(=O)N1C2CC3CCC2(CS1(=O)=O)C3(C)C)[Si](C)(C)C (stereo not drawn)
TGI [1]: > 100 µM
TGI [2]: > 100 µM
TGI [3]: > 100 µM
TGI [4]: > 100 µM
TGI [5]: > 100 µM
TGI [6]: > 100 µM
TGI [7]: > 100 µM
TGI [8]: > 100 µM
TGI [9]: > 100 µM
TGI [10]: > 100 µM
TGI [11]: > 100 µM
TGI [12]: > 100 µM
TGI [13]: > 100 µM
TGI [14]: > 100 µM
TGI [15]: > 100 µM
TGI [16]: > 100 µM
TGI [17]: > 100 µM
TGI [18]: > 100 µM
TGI [19]: > 100 µM
TGI [20]: > 100 µM
TGI [21]: > 100 µM
TGI [22]: > 100 µM
TGI [23]: > 100 µM
TGI [24]: > 100 µM
TGI [25]: > 100 µM
TGI [26]: > 100 µM
TGI [27]: > 100 µM
TGI [28]: > 100 µM
TGI [29]: > 100 µM
TGI [30]: > 100 µM
TGI [31]: > 100 µM
TGI [32]: > 100 µM
TGI [33]: > 100 µM
TGI [34]: > 100 µM
TGI [35]: > 100 µM
TGI [36]: > 100 µM
TGI [37]: > 100 µM
TGI [38]: > 100 µM
TGI [39]: > 100 µM
TGI [40]: > 100 µM
TGI [41]: > 100 µM
TGI [42]: > 100 µM
TGI [43]: > 100 µM
TGI [44]: > 100 µM
TGI [45]: > 100 µM
TGI [46]: > 100 µM
TGI [47]: > 100 µM
TGI [48]: > 100 µM
TGI [49]: > 100 µM
TGI [50]: > 100 µM
TGI [51]: > 100 µM
TGI [52]: > 100 µM

Nc1ccc(-c2nc3ccccc3s2)cc1CO
TGI [53]: > 100 µM
TGI [1]: > 100 µM
TGI [2]: > 100 µM
TGI [3]: > 100 µM
TGI [4]: > 100 µM
TGI [5]: > 100 µM
TGI [6]: > 100 µM
TGI [7]: > 100 µM
TGI [8]: > 100 µM
TGI [9]: > 100 µM
TGI [10]: > 100 µM
TGI [11]: > 100 µM
TGI [12]: > 100 µM
TGI [13]: > 100 µM
TGI [54]: > 100 µM
TGI [14]: > 100 µM
TGI [15]: > 100 µM
TGI [16]: > 100 µM
TGI [17]: > 100 µM
TGI [18]: > 100 µM
TGI [19]: > 100 µM
TGI [20]: > 49.2 µM
TGI [22]: > 100 µM
TGI [23]: > 100 µM
TGI [24]: > 100 µM
TGI [55]: > 100 µM
TGI [56]: > 100 µM
TGI [25]: > 100 µM
TGI [26]: > 100 µM
TGI [27]: > 100 µM
TGI [28]: > 100 µM
TGI [57]: > 100 µM
TGI [29]: > 100 µM
TGI [30]: > 100 µM
TGI [31]: > 100 µM
TGI [32]: > 100 µM
TGI [33]: > 100 µM
TGI [34]: > 100 µM
TGI [36]: > 100 µM
TGI [37]: > 90.4 µM
TGI [38]: > 100 µM
TGI [39]: > 100 µM
TGI [40]: > 100 µM
TGI [41]: > 100 µM
TGI [42]: > 100 µM
TGI [43]: > 100 µM
TGI [58]: > 100 µM
TGI [59]: > 100 µM
TGI [44]: > 100 µM
TGI [45]: > 100 µM
TGI [46]: > 100 µM
TGI [47]: > 100 µM
TGI [49]: > 100 µM
TGI [50]: > 100 µM
TGI [51]: > 100 µM
TGI [52]: > 100 µM
